Assay [1] addresses T1, rat wild-type FAAH (FAAH^wt) (Rattus norvegicus, UniProt P97612).
T1 construct: expressed in transfected cells; host or cells: HeLa cells, pcDNA4 plasmid, lysate
T1 sequence (P97612 1-579): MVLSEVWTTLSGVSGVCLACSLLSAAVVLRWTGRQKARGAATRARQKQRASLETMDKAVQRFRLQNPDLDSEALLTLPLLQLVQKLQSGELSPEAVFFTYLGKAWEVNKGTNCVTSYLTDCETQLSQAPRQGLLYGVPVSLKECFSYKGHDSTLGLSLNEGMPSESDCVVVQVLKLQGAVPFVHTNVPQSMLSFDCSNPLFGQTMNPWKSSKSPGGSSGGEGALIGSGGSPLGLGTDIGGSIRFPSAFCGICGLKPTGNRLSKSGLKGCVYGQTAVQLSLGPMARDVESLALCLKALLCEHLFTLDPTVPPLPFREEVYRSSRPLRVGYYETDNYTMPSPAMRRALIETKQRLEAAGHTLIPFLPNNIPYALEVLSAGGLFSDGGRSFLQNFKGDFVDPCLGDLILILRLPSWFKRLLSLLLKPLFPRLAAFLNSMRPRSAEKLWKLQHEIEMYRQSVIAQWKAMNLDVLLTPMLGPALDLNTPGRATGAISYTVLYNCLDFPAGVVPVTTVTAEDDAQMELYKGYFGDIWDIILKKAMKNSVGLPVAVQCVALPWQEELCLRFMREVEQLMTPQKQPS
The experiment in a line: Inhibition of [3H]AEA hydrolysis in lysates of HeLa cells expressing wild-type FAAH. Format: biochemical.

Another assay has as its target T2, FAAH^T488A (Rattus norvegicus, UniProt P97612, T488A).
T2 construct: expressed in transfected cells; host or cells: HeLa cells, pcDNA4 plasmid, lysate
T2 sequence (P97612 1-579 T488A): T1 sequence (P97612 1-579) with T488A
The experiment in a line: Inhibition of [3H]AEA hydrolysis in lysates of HeLa cells expressing FAAH^T488A. As to conditions: FAAH^T488A lysate 0.4 μg/assay, 18 h, 0.5 μM [3H]AEA. Format: biochemical.

The target in a further assay is T3, mouse brain FAAH (Mus musculus, UniProt O08914).
T3 construct: from tissue; host or cells: mouse brain (minus cerebellum), washed membrane pellet
T3 sequence (O08914 1-579): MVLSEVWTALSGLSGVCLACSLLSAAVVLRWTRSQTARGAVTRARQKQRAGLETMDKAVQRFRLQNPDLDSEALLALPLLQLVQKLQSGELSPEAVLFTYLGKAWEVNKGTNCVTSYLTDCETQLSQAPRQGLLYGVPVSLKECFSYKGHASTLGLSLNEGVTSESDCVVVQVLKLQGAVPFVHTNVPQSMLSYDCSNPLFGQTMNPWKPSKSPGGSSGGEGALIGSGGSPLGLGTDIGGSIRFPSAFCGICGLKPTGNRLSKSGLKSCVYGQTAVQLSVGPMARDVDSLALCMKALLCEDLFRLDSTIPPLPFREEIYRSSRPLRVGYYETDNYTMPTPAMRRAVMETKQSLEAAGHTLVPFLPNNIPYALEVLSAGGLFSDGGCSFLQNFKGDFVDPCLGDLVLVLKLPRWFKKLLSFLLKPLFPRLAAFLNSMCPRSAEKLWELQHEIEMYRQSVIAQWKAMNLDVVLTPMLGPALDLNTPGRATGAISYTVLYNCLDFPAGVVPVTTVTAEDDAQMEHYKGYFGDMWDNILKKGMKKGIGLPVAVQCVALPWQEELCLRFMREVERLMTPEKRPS
Also noted: method as in PMID 26406890. As to conditions: cited from earlier work.

Positions count from the first letter of the chain named. Read-outs that look alike come from different tables or passages of the source.

Consider one molecule from publication PMC4643906, “Interaction of the N-(3-Methylpyridin-2-yl)amide Derivatives of Flurbiprofen and Ibuprofen with FAAH: Enantiomeric Selectivity and Binding Mode” (PLoS ONE, 2015).

As to `Cc1cccnc1NC(=O)[C@H](C)c1ccc(-c2ccccc2)c(F)c1` [(R)-Flu-AM1, (R)-2-(2-fluorobiphenyl-4-yl)-N-(3-methylpyridin-2-yl)propanamide], the nH was determined as 0.99±0.06 in assay [1] (FAAH^wt + empty vector (0.36 μg/assay) lysates, 18 h, 0.5 μM [3H]AEA); 1.02±0.07 in assay [1] (FAAH^wt lysate 0.04 μg/assay, 18 h, 0.5 μM [3H]AEA); 1.47±0.37 on FAAH^T488A. The IC50 in assay [1] (FAAH^wt + empty vector (0.36 μg/assay) lysates, 18 h, 0.5 μM [3H]AEA, read-out: IC50) is 8 µM; in assay [1] (FAAH^wt + empty vector (0.36 μg/assay) lysates, 18 h, 0.5 μM [3H]AEA, read-out: pI50 (converted)), 7.94 µM; in assay [1] (FAAH^wt lysate 0.04 μg/assay, 18 h, 0.5 μM [3H]AEA, read-out: IC50) it was 8.3 µM; in assay [1] (FAAH^wt lysate 0.04 μg/assay, 18 h, 0.5 μM [3H]AEA, read-out: pI50 (converted)), 8.32 µM; in assay [1] (preliminary experiments, another batch of wild-type FAAH, 1.5–2 μg/assay, 20 min at 37°C, read-out: potencies), 1.6 µM; on FAAH^T488A (read-out: IC50), 28 µM. For the same molecule, the values for the IC50 at FAAH^T488A (read-out: pI50 (converted)) and at mouse brain FAAH (mouse brain homogenates) were 28.2 µM and 8.8 µM, respectively. Also, the mode of inhibition entry at mouse brain FAAH (mouse brain FAAH) is “competitive”. The pI50 at mouse brain FAAH (mouse brain homogenates) is listed as 5.05±0.06.
